Measurements published in ChEMBL document CHEMBL1201862, “PubChem BioAssay data set” (2004).
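Step 1: Grow cells in 96-well plates. Step 2: Expose to compound for 48 hours at 5 concentrations. Step 3: Interpolate endpoints linearly; if unreached, use highest concentration. GI50 marks 50% less growth.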 Calls of active or inactive are those of the source. No stated cut-off is given here; in the data, active = GI50 up to about 1.1 µM and inactive = higher.

How the values were obtained:
Assay in all cases: DTP human tumour cell line panel, 48 h
[1] = test system: 786-0
[2] = test system: A498
[3] = test system: A549
[4] = test system: ACHN
[5] = test system: CAKI-1
[6] = test system: CCRF-CEM
[7] = test system: COLO 205
[8] = test system: DLD-1
[9] = test system: DMS-114
[10] = test system: DMS-273
[11] = test system: EKVX
[12] = test system: HCC 2998
[13] = test system: HCT-116
[14] = test system: HCT-15
[15] = test system: HL-60
[16] = test system: HOP-62
[17] = test system: HT-29
[18] = test system: IGROV-1
[19] = test system: K562
[20] = test system: KM-20L2
[21] = test system: KM12
[22] = test system: LOX IMVI
[23] = test system: LXFL 529
[24] = test system: M14
[25] = test system: MOLT-4
[26] = test system: Malme-3M
[27] = test system: NCI-H226
[28] = test system: NCI-H23
[29] = test system: NCI-H460
[30] = test system: NCI-H522
[31] = test system: OVCAR-3
[32] = test system: OVCAR-5
[33] = test system: OVCAR-8
[34] = test system: RPMI-8226
[35] = test system: RXF 393
[36] = test system: SF-268
[37] = test system: SF-295
[38] = test system: SF-539
[39] = test system: SK-MEL-28
[40] = test system: SK-MEL-2
[41] = test system: SK-MEL-5
[42] = test system: SK-OV-3
[43] = test system: SN12C
[44] = test system: SNB-19
[45] = test system: SNB-75
[46] = test system: SNB-78
[47] = test system: SW-620
[48] = test system: TK-10
[49] = test system: U-251
[50] = test system: UACC-257
[51] = test system: UACC-62
[52] = test system: UO-31
[53] = test system: XF498
[54] = test system: HOP-18
[55] = test system: OVCAR-4
[56] = test system: SR

`Cc1cc(N(CCC#N)S(=O)(=O)c2ccccc2)ccc1/C=C1N=C(/C=C/c2ccccc2)OC\1=O` was tested, and the GI50 [1] was > 100 µM (inactive), the GI50 [2] was > 100 µM (inactive) and the GI50 [3] was > 100 µM (inactive). The GI50 [4] was > 100 µM (inactive), the GI50 [5] was > 100 µM (inactive) and the GI50 [6] was > 100 µM (inactive). For the same compound, the GI50 [7] was > 100 µM (inactive), the GI50 [8] was > 100 µM (inactive) and the GI50 [9] was 94.4 µM (inactive). For the same compound, the GI50 [10] was > 100 µM (inactive), the GI50 [11] was > 100 µM (inactive) and the GI50 [12] was > 100 µM (inactive). The GI50 [13] was > 100 µM (inactive), the GI50 [14] was > 100 µM and the GI50 [15] was > 100 µM (inactive). For the same compound, the GI50 [16] was > 100 µM (inactive), the GI50 [17] was > 100 µM (inactive) and the GI50 [18] was > 100 µM (inactive). The GI50 [19] was 94.6 µM (inactive), the GI50 [20] was > 100 µM (inactive) and the GI50 [21] was > 100 µM (inactive). For the same compound, the GI50 [22] was > 100 µM (inactive), the GI50 [23] was 87.3 µM (inactive) and the GI50 [24] was > 100 µM (inactive). The GI50 [25] was 98.2 µM (inactive), the GI50 [26] was > 100 µM (inactive) and the GI50 [27] was > 100 µM (inactive). The GI50 [28] was > 100 µM (inactive), the GI50 [29] was > 100 µM (inactive) and the GI50 [30] was 67.9 µM (inactive). For the same compound, the GI50 [31] was > 100 µM (inactive), the GI50 [32] was > 100 µM (inactive) and the GI50 [33] was > 100 µM (inactive). For the same compound, the GI50 [34] was > 100 µM (inactive), the GI50 [35] was > 100 µM (inactive) and the GI50 [36] was > 100 µM (inactive). The GI50 [37] was > 100 µM (inactive), the GI50 [38] was > 100 µM (inactive) and the GI50 [39] was > 100 µM (inactive). For the same compound, the GI50 [40] was > 100 µM (inactive), the GI50 [41] was 77.6 µM (inactive) and the GI50 [42] was > 100 µM (inactive). For the same compound, the GI50 [43] was > 100 µM (inactive), the GI50 [44] was > 100 µM (inactive) and the GI50 [45] was > 100 µM (inactive). For the same compound, the GI50 [46] was 80.5 µM (inactive), the GI50 [47] was > 100 µM (inactive) and the GI50 [48] was > 100 µM (inactive). For the same compound, the GI50 [49] was > 100 µM (inactive), the GI50 [50] was > 100 µM (inactive) and the GI50 [51] was > 100 µM (inactive). The GI50 [52] was 70.8 µM (inactive) and the GI50 [53] was > 100 µM (inactive).

For `COC(=O)c1c(OC(=O)c2ccccc2)noc1CC(=O)OC1C=CCCC1` (configuration not stated), the GI50 [1] was > 100 µM (inactive), the GI50 [2] was 68.5 µM (inactive) and the GI50 [3] was > 100 µM (inactive). For the same compound, the GI50 [4] was > 100 µM (inactive), the GI50 [5] was > 100 µM (inactive) and the GI50 [6] was 80 µM (inactive). The GI50 [7] was > 100 µM (inactive), the GI50 [8] was > 100 µM (inactive) and the GI50 [9] was 38.5 µM (inactive). For the same compound, the GI50 [10] was > 100 µM (inactive), the GI50 [12] was > 100 µM (inactive) and the GI50 [13] was > 100 µM (inactive). For the same compound, the GI50 [14] was 86.1 µM, the GI50 [15] was 35.1 µM (inactive) and the GI50 [54] was > 100 µM (inactive). The GI50 [16] was > 100 µM (inactive), the GI50 [18] was > 100 µM (inactive) and the GI50 [19] was 72.6 µM (inactive). The GI50 [20] was > 100 µM (inactive), the GI50 [21] was > 100 µM (inactive) and the GI50 [23] was 58.7 µM (inactive). For the same compound, the GI50 [24] was > 100 µM (inactive), the GI50 [25] was 25.5 µM (inactive) and the GI50 [26] was > 100 µM (inactive). The GI50 [27] was > 100 µM (inactive), the GI50 [29] was > 100 µM (inactive) and the GI50 [30] was 45.4 µM (inactive). The GI50 [31] was > 100 µM (inactive), the GI50 [55] was > 100 µM (inactive) and the GI50 [33] was > 100 µM (inactive). For the same compound, the GI50 [34] was > 100 µM (inactive), the GI50 [35] was 93.1 µM (inactive) and the GI50 [36] was > 100 µM (inactive). For the same compound, the GI50 [38] was > 100 µM (inactive), the GI50 [39] was > 100 µM (inactive) and the GI50 [40] was > 100 µM (inactive). The GI50 [41] was 27.5 µM (inactive), the GI50 [42] was > 100 µM (inactive) and the GI50 [43] was > 100 µM (inactive). The GI50 [44] was > 100 µM (inactive), the GI50 [45] was > 100 µM (inactive) and the GI50 [46] was > 100 µM (inactive). For the same compound, the GI50 [56] was > 100 µM (inactive), the GI50 [47] was > 100 µM (inactive) and the GI50 [48] was > 100 µM (inactive). The GI50 [49] was > 100 µM (inactive), the GI50 [50] was 95.5 µM (inactive) and the GI50 [51] was 28.6 µM (inactive). For the same compound, the GI50 [52] was 66.4 µM (inactive).
